# Data taken from patent publication CN117800914A, “一种抗SARS-CoV-2病毒奥密克戎突变种抑制剂” (Second Military Medical University SMMU, priority 2023, dated 2024).
# Tested on: SARS-CoV-2 Omicron mutant BA.2 (SARS-CoV-2奥密克戎毒突变种BA.2)
# Type: cell-based, SARS-CoV-2 Omicron BA.2
# Settings: 20 h
row,SMILES,IC50 [nM]
1,CO[C@H]1/C=C/C=C/C=C/C[C@H](OC(=O)[C@@H](C)NC(=O)CCC(C)C)[C@H](C)[C@@H](O)/C(CO)=C\CCc2cc(F)cc(c2)NC(=O)C1 [A6],450
2,CO[C@H]1/C=C/C=C/C=C/C[C@H](OC(=O)[C@@H](C)NC(=O)CC(C)C)[C@H](C)[C@@H](O)/C(C)=C\CCc2ccc(F)c(c2)NC(=O)C1 [B1],300
3,CO[C@H]1/C=C/C=C/C=C/C[C@H](O)[C@H](C)[C@@H](OC(=O)[C@@H](C)NC(=O)CC(C)C)/C(C)=C\CCc2ccc(F)c(c2)NC(=O)C1 [B3],1190
4,CCC(C)C(=O)N[C@H](C)C(=O)O[C@H]1C/C=C/C=C/C=C/[C@H](OC)CC(=O)Nc2cc(ccc2F)CC/C=C(/C)[C@H](O)[C@H]1C (some centres unmarked) [B5],200
5,C/C=C(\C)C(=O)N[C@H](C)C(=O)O[C@H]1C/C=C/C=C/C=C/[C@H](OC)CC(=O)Nc2cc(ccc2F)CC/C=C(/C)[C@H](O)[C@H]1C [B6],413
6,CO[C@H]1/C=C/C=C/C=C/C[C@H](OC(=O)[C@@H](C)NC(=O)CCC(C)C)[C@H](C)[C@@H](O)/C(C)=C\CCc2ccc(F)c(c2)NC(=O)C1 [B8],1100
7,COc1cc2cc(c1)NC(=O)C[C@@H](OC)/C=C/C=C/C=C/C[C@H](O)[C@H](C)[C@@H](OC(=O)[C@@H](C)NC(=O)CC(C)C)/C(C)=C\CC2 [C7],825
8,COc1cc2c(O)c(c1)NC(=O)C[C@@H](OC)/C=C/C=C/C=C/C[C@H](O)[C@H](C)[C@@H](OC(=O)[C@@H](C)NC(=O)CC(C)C)/C(C)=C\CC2 [C8],400
9,CO[C@H]1/C=C/C=C/C=C/C[C@H](OC(=O)[C@@H](C)NC(=O)CC(C)C)[C@H](C)[C@@H](O)/C(C)=C\CCc2cccc(c2)NC(=O)C1 [D1],> 5000

# Tested on: SARS-CoV-2 mutant strains (SARS-CoV-2突变株)
# Settings: treatment of SARS-CoV-2 mutant strains; cited from earlier work
row,SMILES,clinical performance in treating SARS-CoV-2 mutant strains (in words)
1,NC(=O)c1nc(F)c[nH]c1=O [法维拉韦],不尽如人意
2,CCC(CC)COC(=O)[C@H](C)N[P@](=O)(OC[C@H]1O[C@@](C#N)(c2ccc3c(N)ncnn23)[C@H](O)[C@@H]1O)Oc1ccccc1 [瑞德西韦],不尽如人意
